In patent publication US7670800B2, “Process for the purification of riboflavin” (DSM IP Assets B.V., priority 2003, dated 2010):
Values belong to the compound of their own block, whether it stands above or below them.

Experiments:
[1] = not given; remark: listed apart in the source
[2] = Supersaturation / spontaneous crystallisation in fermentation solution (heat flow calorimeter, turbidity sensor; MethB); assay type: physicochemical
Experimental: Within the temperature range of 44° C. to 52° C. the solubility of riboflavin dihydrate and within the temperature range of 44° C. to 59° C. the spontaneous crystallization of riboflavin were investigated. […] In another experiment riboflavin was dissolved at a concentration of 0.7 g l^−1 and at a temperature of 69° C.
The experiments were conducted in a heat flow calorimeter. The process of […] by heating and crystallisation by cooling was monitored by a turbidity sensor. 36 mg of crystals of riboflavin anhydrate I or 60 mg of the crystalline form of riboflavin monohydrate or 120 mg of crystals of riboflavin dihydrate, respectively, were suspended in the fermentation solution and heated to 80° C. at a rate of 0.1° C. per minute. The temperature was held during 60 min. Then the system was cooled again to 20° C. at a rate of 0.1° C./min.
Therefore, another method (MethB) was applied to determine the supersaturation at 39° C.: 420 mg of crystals of riboflavin tetrahydrate were suspended and fully dissolved by heating to 69° C. The concentration of riboflavin was 0.6 mg ml^−1. After cooling again to 39° C., the temperature was kept constant.

[3] = Soluble fraction of riboflavin in induced and uninduced cultures; assay type: physicochemical; conditions: fermentation culture induced with seed crystals
Experimental: 500 mg of crystals of riboflavin monohydrate were sterilized at 140° C. for 50 min in an oven, suspended in 5 ml ethanol for 10-200 min, preferably 20-40 min and prior induction 10 ml sterile H2O were added for better handling of the liquid. The suspension was added to the bioreactor after 6 h by a sterile bottle with needle. Crystals of riboflavin dihydrate were formed and in the culture remained monoseptic. From these experiments, it can be concluded that it is possible to direct the crystal modification to riboflavin dihydrate.
In case of the induced cultures this phenomenon is not observed. The solubility of riboflavin (approximately 0.4 gl^−1) is not exceeded. It is controlled by x-ray diffraction whether the crystalline form of the crystals changes during the sterilization procedure.

[4] = relative humidity of 95%, samples prepared by method of U.S. Pat. No. 2,603,633
Excerpt: A process for the preparation of riboflavin tetrahydrate is described in U.S. Pat. No. 2,603,633. The process basically uses a solvent to rapidly precipitate the riboflavin in order to obtain the desired tetrahydrate “type C” (modification).

SMILES: Cc1cc2nc3c(=O)[nH]c(=O)nc-3n(C[C@H](O)[C@H](O)[C@H](O)CO)c2cc1C [riboflavin dihydrate]
time for complete transformation into riboflavin anhydrate I (80° C.): ≤ 20 s
partial transformation into riboflavin anhydrate I (stirred slurry of pure riboflavin dihydrate, 23° C., in 11 days, Raman spectroscopy): 80%
water contained in the dihydrate structure ([1]; relative humidity of 20%, decreasing RH): about 1.3 mol water per mol riboflavin
water uptake ([1]; relative humidity of about 92%, increasing RH, ambient temperature, sample B/C): 9.57 wt.-%

SMILES: Cc1cc2nc3c(=O)[nH]c(=O)nc-3n(C[C@H](O)[C@H](O)[C@H](O)CO)c2cc1C [riboflavin anhydrate III]
range of relative humidity in which the crystalline form was identified ([1]; second sample (type C), DVS): 0% < RH % RH

SMILES: Cc1cc2nc3c(=O)[nH]c(=O)nc-3n(C[C@H](O)[C@H](O)[C@H](O)CO)c2cc1C [riboflavin]
supersaturation line ([2]; 39° C., MethB, concluded from the experiments): below 0.6 mg ml^−1
solubility of riboflavin [3]: approximately 0.4 gl^−1

SMILES: Cc1cc2nc3c(=O)[nH]c(=O)nc-3n(C[C@H](O)[C@H](O)[C@H](O)CO)c2cc1C [riboflavin anhydrate I, reference compound]
position of the supersaturation line ([2]; 39° C., estimated): above 0.6 g l^−1
partial transformation into riboflavin dihydrate (stirred slurry only containing riboflavin anhydrate I, 4° C., in 56 days): 80%

Now from value to compound:

time until crystallisation started ([2]; 0.6 mg ml^−1 riboflavin, dissolved at 69° C., cooled to and kept at 39° C.): 3 h
temperature of spontaneous crystallisation ([2]; 0.7 mg ml^−1, dissolved at 69° C., cooling): 46 °C
time to transform into riboflavin dihydrate [4]: about 100 min
SMILES: Cc1cc2nc3c(=O)[nH]c(=O)nc-3n(C[C@H](O)[C@H](O)[C@H](O)CO)c2cc1C.O.O.O.O [riboflavin tetrahydrate]

range of relative humidity at which the crystalline form appeared ([1]; sample modification B/C, DVS with parallel X-ray diffraction, ambient temperature): 0% RH
SMILES: Cc1cc2nc3c(=O)[nH]c(=O)nc-3n(C[C@H](O)[C@H](O)[C@H](O)CO)c2cc1C [riboflavin anhydrate II]
